Data as given in US7341859B2, “ADH from Rhodococcus erythropolis” (Degussa AG, priority 2002, dated 2008).
Where two headings read alike, the source gives them in different places. Each block holds one molecule with its values, some of them ahead of it.

Tests used:
[1] = tested on: alcohol dehydrogenase from R. erythropolis; assay: Preparative reduction of keto-compounds with ADH and formate dehydrogenase regeneration, chiral GC; format: biochemical, Rhodococcus erythropolis; settings: for Conversion after 10 min [%]: 10 mM keto-compound, 0.5 U/ml alcohol dehydrogenase; for ee [%] of the product: enzymatic reduction, chiral GC
Method: The product is analysed by means of gas chromatography, wherein the stationary phase in the GC column is capable of separating enantiomeric alcohols so that information on the ee values of the enzymatically prepared product can be obtained.
Such a mixture for reduction contains: • 10 mM keto-compound • 0.5 mM NAD • 100 mM Na formate • 1 U/ml formate dehydrogenase
At the times 0, 5 min and 10 min, samples are taken (100 μl), extracted with 100 μl of chloroform and the chloroform phase is analysed using gas chromatography.
Column: CP-Chirasil-DEX CB length: 25 m, diameter: 25 μm (Chrompack). Temperature programme: 5 min at 60° C., then 5° C./min up to 190° C. (for hexanone/hexanol: 30 min at 60° C., then 10° C./min to 195° C.). Column flow 1.3 ml/min; gas:helium
p-Cl-acetophenone, acetophenone, ethyl 2-oxobutyrate, 2-hexanone and 2-heptanone.

[2] = tested on: whole cells of R. erythropolis; assay: Continuous conversion with alginate-immobilised whole cells in a column; format: cell-based, Rhodococcus erythropolis; settings: 1.5 mM, 2 ml per h
Method: Our results with whole cells of R. erythropolis indicate that this strain contains several ADHs, including at least one with opposite enantioselectivity. […] However, this high ee value is retained for only about 10 h (about 3 volume changes), then the ee value drops drastically while the conversion remains at the same high level.

[3] = tested on: ADH in accordance with J. Peters, Dissertation; settings: cited from earlier work
[4] = tested on: alcohol dehydrogenase from R. erythropolis (RE-ADH, new ADH expr. in E. coli); assay: Relative/specific activity of substrates with the new ADH from R. erythropolis (photometric NADH test); format: biochemical, Rhodococcus erythropolis; settings: for Relative activity [%]: relative to acetophenone = 100
Method: In this case, as is normal, the measured activity for one compound is set at 100% and the activity/activities of the other compound(s) is determined in relation thereto. From the relative activities when compared with other substrates, it can then be recognised whether such another substrate is accepted to a greater or lesser extent.
A first purification can be achieved by anion exchange chromatography (MonoQ-Material, Pharmacia) (mobile buffer: 50 mM TEA buffer, pH 7.0; elution with a NaCl gradient of 0-1 M).
For the activity test, the cells were harvested (15 min centrifuging at 14000 rpm, 4° C.) and degraded after resuspension with 100 mM KPi buffer, pH 6.0 (1.5 ml of buffer per 1 g of cells). For the purposes of degradation, the suspension was treated with ultrasound (2×30 sec. power 100%, pulse 50), then the cell broth was centrifuged. The supernatant liquid is the soluble crude extract, the sediment is the insoluble fraction.
For a comparison using relative activities, the activity of the two enzymes was given with respect to phenylacetaldehyde=100%.
In this case, the relative activity is given with respect to the activity measured for acetophenone.

[5] = tested on: ADH in accordance with DE 4209022; settings: cited from earlier work
[6] = tested on: aldehyde reductase from Corynebacterium sp.; settings: cited from earlier work; for relative activity: phenylacetaldehyde = 100%
ADH from R. erythropolis = assay: Enantioselective oxidation of (R,S)-phenylethanol with ADH and NADH oxidase, chiral GC; format: biochemical, Rhodococcus erythropolis; settings: after 2 h; for oxidation of the enantiomer: 10 mM (R,S)-phenylethanol
Method: By means of enantioselective oxidation of an alcohol, an enantiomer-enriched or enantiomer-pure alcohol, for example, can be obtained from a racemate.
Samples were taken after 0, 1 and 2 h and separated by gas chromatography (column: CP-Chirasil-DEX CB length: 25 m, diameter: 25 μm (Chrompack). Temperature programme: 5 min at 60° C., then 5° C./min up to 190° C.; column flow rate 1.3 ml/min; gas: helium. In this case, both the acetophenone peak (product; retention time=16.9 min), and also the enantiomers of phenylethanol (reactants; retention times R-phenylethanol=20.8 min and S-phenylethanol=21.1 min) were recorded.

C[C@H](O)c1ccc(Cl)cc1 = assay: purified protein, by the assay type; settings: other: oxidation reaction
CC(=O)c1ccc(Cl)cc1 = assay: purified protein, by the assay type; settings: other: reduction reaction
[7] = substrate: NC(=O)c1ccc[n+]([C@@H]2O[C@H](COP(=O)([O-])OP(=O)(O)OC[C@H]3O[C@@H](n4cnc5c(N)ncnc54)[C@H](O)[C@@H]3O)[C@@H](O)[C@H]2O)c1; assay: purified protein, by the assay type; settings: other: oxidation reaction
[8] = relative to methyl acetoacetate = 100%, listed as drawing 9
[9] = relative to methyl acetoacetate = 100%, listed as p-chloroacetophenone
[10] = relative to p-methylacetophenone = 100%, listed as drawing 3
[11] = relative to p-methylacetophenone = 100%, listed as p-chloroacetophenone
[12] = relative to 2-heptanone = 100%, listed as 2-decanone
[13] = relative to 2-heptanone = 100%, listed as drawing 11
[14] = relative to 2-heptanone = 100%, listed as 2-heptanone
[15] = relative to 2-heptanone = 100%, listed as drawing 10
[16] = relative to p-methylacetophenone = 100%
[17] = relative to methyl acetoacetate = 100%
[18] = relative to 2-heptanone = 100%, listed as drawing 12
[19] = relative to 2-heptanone = 100%, listed as phenoxyacetone
[20] = relative to p-fluoroacetophenone = 100%, listed as drawing 5
[21] = relative to p-fluoroacetophenone = 100%, listed as p-methoxyacetophenone

Molecule: CC(=O)c1ccc(Cl)cc1 [p-Cl-acetophenone, p-chloroacetophenone]
Conversion after 10 min [%] [1]: >95% | enantiomeric form of the product of conversion by the new alcohol dehydrogenase ([1]; also when used several times or at higher concentrations): enantiomerically pure | ee [%] of the product [1]: >99% | ee of (S)-p-chloro-2-phenylethanol obtained ([2]; after 25 h (about 9 volume changes)): 70 % ee | ee of the alcohol obtained ([2]; after 50 h (about 18 volume changes)): about 5 % ee | relative activity [3, 8]: 100% | relative activity [3, 9]: 100% | relative activity ([4]; phenylacetaldehyde = 100%): 288% | Relative activity [%] [4]: 1198% | relative activity [4, 8]: 909% | relative activity [4, 9]: 909% | relative activity [4, 10]: 189% | relative activity [4, 11]: 189% | relative activity [5, 10]: 81% | relative activity [5, 11]: 81% | relative activity [6]: 338%

Molecule: C[C@@H](O)c1ccccc1 [(R)-phenylethanol]
ee value of the remaining enantiomer (ADH from R. erythropolis): > 99% | oxidation of the enantiomer (ADH from R. erythropolis): remained untouched

Molecule: CCCCCCCCC(C)=O [Decan-2-one, 2-decanone]
relative activity [3, 12]: 79% | relative activity [3, 13]: 79% | relative activity [4, 12]: 76% | relative activity [4, 13]: 76% | Relative activity [%] [4]: 2521%

Molecule: CC(=O)c1ccccc1 [Acetophenone]
Conversion after 10 min [%] [1]: >95% | ee [%] of the product [1]: >99% | activity of Rhodococcus ADH compared with the Corynebacterium enzyme ([4]; highly purified enzymes, towards acetophenone): about 15 times | activity for acetophenone reduction ([4]; homogeneous enzyme): 348 U/mg | relative activity ([4]; phenylacetaldehyde = 100%): 87% | Relative activity [%] [4]: 100% | activity for acetophenone reduction ([6]; homogeneous enzyme): 22.4 U/mg | relative activity [6]: 35%

Molecule: CC(=O)c1ccc(F)cc1 [p-F-acetophenone, p-fluoroacetophenone]
Relative activity [%] [4]: 194% | relative activity ([4]; relative to p-fluoroacetophenone = 100%): 100% | relative activity ([5]; relative to p-fluoroacetophenone = 100%, listed as drawing 6): 100% | relative activity ([5]; relative to p-fluoroacetophenone = 100%, listed as p-fluoroacetophenone): 100%

Molecule: CC(=O)c1cccc(Cl)c1 [m-Cl-acetophenone]
Relative activity [%] [4]: 2384%

Molecule: O=CCc1ccccc1 [Phenylacetaldehyde]
relative activity ([4]; phenylacetaldehyde = 100%): 100% | relative activity [6]: 100%

Conversion after 10 min [%] [1]: >95% | ee [%] of the product [1]: >99%
Molecule: CCCCCC(C)=O [Heptan-2-one, 2-heptanone]
relative activity [3, 14]: 100% | relative activity [3, 15]: 100% | relative activity [4, 14]: 100% | relative activity [4, 15]: 100% | Relative activity [%] [4]: 3328%

Molecule: CC(=O)c1ccc(C)cc1 [p-methyl-acetophenone, p-methylacetophenone]
Relative activity [%] [4]: 640% | relative activity [4, 16]: 100% | relative activity [5, 16]: 100%

Molecule: RE-ADH (Rhodococcus erythropolis)
Km (C[C@H](O)c1ccc(Cl)cc1): 280 µM | Km (CC(=O)c1ccc(Cl)cc1): 500 µM

Molecule: COC(=O)CC(C)=O [Methyl acetoacetate, methyl acetoacetate]
relative activity [3, 17]: 100% | Relative activity [%] [4]: 134% | relative activity [4, 17]: 100% | relative activity ([4]; relative to methyl acetoacetate = 100%, listed as methyl ester): 100%

Molecule: CCOC(=O)CC(C)=O [Ethyl acetoacetate]
relative activity [3, 17]: 250% | relative activity ([3]; relative to methyl acetoacetate = 100%, listed as β-ketoethyl esters): 250% | Relative activity [%] [4]: 1020% | relative activity [4, 17]: 773% | relative activity ([4]; relative to methyl acetoacetate = 100%, listed as β-ketoethyl ester): 773%

Molecule: CCCCC=O [Valeraldehyde]
relative activity ([4]; phenylacetaldehyde = 100%): 433% | relative activity [6]: 181%

Molecule: CC(=O)COc1ccccc1 [Phenoxyacetone, phenoxyacetone]
relative activity [3, 18]: 71% | relative activity [3, 19]: 71% | relative activity [4, 18]: 126% | relative activity [4, 19]: 126% | Relative activity [%] [4]: 4180%

Molecule: C[C@H](O)c1ccccc1 [(S)-phenylethanol]
oxidation of the enantiomer (ADH from R. erythropolis): fully oxidised

Conversion after 10 min [%] [1]: >95% | ee [%] of the product [1]: >99%
Molecule: CCOC(=O)C(=O)CC [Ethyl 2-oxobutyrate, ethyl 2-oxobutyrate]

Molecule: COc1ccc(C(C)=O)cc1 [p-methoxy-acetophenone, p-methoxyacetophenone]
Relative activity [%] [4]: 232% | relative activity [4, 20]: 195% | relative activity [4, 21]: 195% | relative activity [5, 20]: 90% | relative activity [5, 21]: 90%

Molecule: CCCCC(C)=O [2-hexanone]
Conversion after 10 min [%] [1]: >95% | ee [%] of the product [1]: >99%

B1: RE-ADH (Rhodococcus erythropolis) (protein)
chain: MKAIQYTRIGAEPELTEIPKPEPGPGEVLLEVTAAGVCHSDDFIMSLPEEQYTYGLPLTLGHEGAGKVAAVGEGVEGLDIGTNVVVYGPWGCGNCWHCSQGLENYCSRAQELGINPPGLGAPGALAEFMIVDSPRHLVPIGDLDPVKTVPLTDAGLTPYHAIKRSLPKLRGGSYAVVIGTGGLGHVAIQLLRHLSAATVIALDVSADKLELATKVGAHEVVLSDKDAAENVRKITGSQGAALVLDFVGYQPTIDTAMAVAGVGSDVTIVGIGDGQAHAKVGFFQSPYEASVTVPYWGARNELIELIDLAHAGIFDIAVETFSLDNGAEAYRRLAAGTLSGRAVVVPGL
Km [7]: 82 µM
